From US5994396A, “Furansulfonic acid derivatives and pharmaceutical compositions containing the same” (priority 1998, dated 1999)
Where a name gives a salt, the structure may show the parent alone.

What was measured:
[1] = tested on: rat embryonic hippocampal primary neuronal/astrocytic cultures; assay: Protection against Aβ(25-35)-induced neuronal cell loss; assay type: cell-based, Sprague Dawley rat; conditions: Neuron, 100 μM test compound, 30 μM Aβ(25-35), 96 hours treatment, morphologically viable neurons counted, read-out: reduction of Aβ(25-35)-induced neuronal cell loss compared to the controls
Method: Sprague Dawley rat hippocampus of 18-day-gestation embryos was excised and then dissociated by trituration to prepare primary neuronal/astrocytic cultures. Cells (3×10^5) were plated on 35 mm poly-D-lysine-coated plates containing Eagle's minimum essential medium supplemented with 10% fetal bovine serum. After 3-5 hours, the original medium was removed and replaced with 1 mL of fresh medium. Cultures were maintained at 37° C. in a 5% CO2 /95% air, humidified incubator.
To the cells (7 DIV) was added 30 μM of Aβ(25-35) dissolved in dH2 O (stored at -20° C.) and 100 μM of the test compound in 1% methylcellulose. Controls were also conducted without the test compound. The percentage of morphologically viable neurons was determined counting the number of viable neurons after 96 hours treatment compared to the number of neurons before treatment in the same premarked culture regions (three regions/culture). The number of wells was n=6 per treatment condition.

[2] = tested on: interleukin-6 (IL-6) release, THP-1 cells; assay: Reduction of LPS and β-amyloid-induced increased release of interleukin-6 in THP-1 cells (ELISA); assay type: cell-based; conditions: Homo sapiens, 100 μM test compound with LPS and Aβ(25-35), 48 hours, read-out: reduction of β-amyloid-induced increased release of interleukin-6 compared to the controls
Method: (§1) THP-1 cells, a human monocyte cell line from American Type Culture Collection, were grown in RPMI-1640 medium plus 10% fetal bovine serum (FBS, not heat-inactivated) in T-flasks. The medium was changed every two days by spinning down (800 rpm, 5 minutes) the cells, replating cells and adding fresh medium. Alternatively, the cultures were maintained by the addition of fresh medium. The cultures were maintained at a cell concentration ranging from between 1×10^5 and 1×10^6 cells/mL. Because sera may contain unknown factors which can affect macrophage/monocyte IL-1 production, the FBS was reduced to 5% for 24 hours. The FBS was further reduced to 2% over two days prior to starting each experiment. The cells were collected by centrifugation and resuspended into 2% FBS. Cell numbers were calculated and cells were plated on 24-well plates (3×10^5 cells/0.6 mL/well). Cells were then treated with LPS (0.5 μg/ml or 0-10 μg/ml for LPS dose-responseexperiments) alone or in combination with Aβ peptides (5 μM or 0.05-5 μM for dose-response experiments). When determining the effect of the test compounds on IL-1β, IL-6 and TNFα release, 100 μM of the test compound was added with the LPS and Aβ(25-35) and this mixture was incubated for 48 hours prior to performing ELISA.
(§2) IL-1β, IL-6 and TNFα secretions into medium by LPS-stimulated THP-1 cells, in the presence or absence of amyloid peptides and a test compound, were assayed with a commercially available ELISA kit (R & D Systems). Briefly, a microtiter plate coated with a murine monoclonal antibody to human IL-1β, IL-6, or TNFα was supplied by the manufacturer. Standards and samples were pipetted into the wells and any IL-1β, IL-6 or TNFα present was bound by the immobilized antibody. Unbound proteins were washed away and a horseradish peroxidase-linked polyclonal antibody specific for IL-1β, IL-6 or TNFα was added to the wells to "sandwich" the IL-1β, IL-6 and TNFα bound in the initial step. After washing to remove any unbound antibody-enzyme reagent, a substrate solution (1:1 hydrogen peroxide:tetramethylbenzidine, v/v) was added to the wells and color developed in proportion to the amount of IL-1β, IL-6 or TNFα bound in the initial step. Color development was stopped with 2 N sulfuric acid and the optical density of the standard and the test samples was measured at 450 nm. The amounts of IL-1β, IL-6 or TNFα present in the samples were calculated based upon a standard curve. Assays were run in quadruplicate wells.

[3] = tested on: MRL/MpJfas^1pr mutant mice; assay: Reduction of cognitive deficits in autoimmune mice (T-maze); assay type: in vivo, mouse; conditions: Fas^1pr mice; 100 mg/kg p.o. daily from 2 to 4 months of age (9 weeks); versus untreated mutant mice
Source text: MRL/MpJfas^1pr ("mutant mice" or "Fas^1pr ") strains of mice have been described as useful models of Lupus due to their autoimmune lymphoproliferatory pathology. In particular, the mutant mice show a cognitive deficit at approximately four months of age, which is not observed at two months of age. See, for example, Forster et al., 1988, Behav. Neural Biology, 49, 139-151.
In the experiment, wild-type ("++") and Fas^1pr strains of mice were received at 4 to 8 weeks of age (n=10-11). The compound of Example 1 above or 1% methylcellulose (100 mg/kg p.o.) was administered daily from 2 months of age to 4 months of age (a total of 9 weeks). After reaching 4 months of age, the mice were tested for cognitive ability in a T-maze. This behavioral task measures discrimination, active avoidance and acquisition skills (acquisition is the number of avoidances in the first 5 test trials).

[4] = molecular target: T1, synthetic Aβ(1-40) (Homo sapiens, UniProt P05067); assay: Inhibition of Aβ(1-40) beta-pleated sheet formation (thioflavin T fluorescence); assay type: biochemical; conditions: compound 10 μM; ThT 3 μM in PBS pH 6.0; Aβ(1-40) 3 μg; fluorescence increase over 12-24 hours; read-out: percent inhibition of Aβ(1-40) beta-pleated sheet formation compared to the controls
T1 construct: particularly the aggregated fibrils of synthetic Aβ(1-40)
Method: Thioflavin T (ThT) is known to rapidly associate with beta-pleated sheets, particularly the aggregated fibrils of synthetic Aβ(1-40). This association gives rise to a new excitation maximum at 440 nm and to enhanced emission at 490 nm.
The experiments were performed using a CytoFluor II fluorescence plate reader having the following parameters: […]
Into each well was aliquoted 95 μl of ThT (3 μM) prepared in PBS (pH 6.0), 2 μL of the compound to be tested (10 μM) prepared with 0.05% of methylcellulose in PBS (pH 6.0), and 3 μL of Aβ(1-40) (3 μg) prepared with dH2 O. The fluorescence measurement began when the Aβ(1-40) was added and continued for a total of 12-24 hours. The percent inhibition of beta-pleated sheet formation was calculated from the relative fluorescence unit increase over the 12-24 hours between aggregation in the presence and in the absence of the test compounds.

[5] = tested on: interleukin-1β (IL-1β) release, THP-1 cells; assay: Reduction of LPS and β-amyloid-induced increased release of interleukin-1β in THP-1 cells (ELISA); assay type: cell-based; conditions: Homo sapiens, 100 μM test compound with LPS and Aβ(25-35), 48 hours, read-out: reduction of β-amyloid-induced increased release of interleukin-1β compared to the controls
Method: as §1, §2

[6] = tested on: rats injected with Aβ(25-35); assay: Reduction of locomotor impairment due to Aβ-peptide injected into substantia nigra; assay type: in vivo, Sprague-Dawley rat; conditions: oral 1-10 mg/kg one hour before and three hours post 20 μg Aβ(25-35) injection; tested one week after treatment
Method: Male Sprague-Dawley rats (250-400 g) were given injections of 20 μg of Aβ(25-35) into their substantia nigra. Prior to the injection, the rats were fasted overnight and then each received an oral treatment of the test compound (1-10 mg/kg) dissolved in aqueous 1% methyl cellulose or the vehicle alone, one hour before and three hours post the Aβ-peptide stereotaxic injection. One week after treatment, the rats were dosed s.c. with 0.5 mg/kg apomorphine (dissolved in 0.1% vitamin C in isotonic saline) and the circling reflex was monitored using a Rotorat computerized behavioral monitoring apparatus for the time period between 15 and 30 minutes of being placed in the arena. Impairment of the animals due to Aβ-peptide was determined by measuring the number of rotations over the 15 minute period.

[7] = tested on: tumor necrosis factor-α (TNFα) release, THP-1 cells; assay: Reduction of LPS and β-amyloid-induced increased release of tumor necrosis factor-α in THP-1 cells (ELISA); assay type: cell-based; conditions: Homo sapiens, 100 μM test compound with LPS and Aβ(25-35), 48 hours, read-out: reduction of β-amyloid-induced increased release of tumor necrosis factor-α compared to the controls
Method: as §1, §2

T1 sequence (P05067 672-711): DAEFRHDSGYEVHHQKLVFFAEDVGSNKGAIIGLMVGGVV

Row | SMILES | inhibition at 100 µM [1] [%] | inhibition at 100 µM [2] [%] | acquisition in T-maze (FIG. 1) [3] | avoidance in T-maze (FIG. 2) [3] | inhibition at 10 µM [4] [%] | inhibition at 100 µM [5] [%] | locomotor impairment (apomorphine-induced rotations over 15 minute period) compared to Aβ(25-35)-treated controls [6] | inhibition at 100 µM [7] [%]
1 | CCCCNC(=O)c1ccc(S(=O)(=O)[O-])o1.[Na+] [Example 1, N-n-Butyl-5-carbamoylfuran-2-sulfonic Acid Sodium Salt] | ≥ 60 | ≥ 20 | acquired avoidance skills earlier than untreated mutant mice | reduced avoidance values | ≥ 10 | ≥ 20 | reduced the locomotor impairment | ≥ 20
2 | CC(C)NC(=O)c1ccc(S(=O)(=O)O)o1 [Example 2, N-Isopropyl-5-carbamoylfuran-2-sulfonic Acid Sodium Salt] | ≥ 60 | ≥ 20 |  |  | ≥ 10 | ≥ 20 |  | ≥ 20
3 | CCCCNC(=O)C=Cc1ccc(S(=O)(=O)O)o1 [Example 5, 5-[2-(N-n-Butylcarbamoyl)eth-1-enyl]-furan-2-sulfonic Acid Sodium Salt] | ≥ 60 | ≥ 20 |  |  |  | ≥ 20 |  | ≥ 20
4 | CCCCNC(=O)CCc1ccc(S(=O)(=O)O)o1 [Example 6, 5-[2-(N-n-Butylcarbamoyl)ethyl]-furan-2-sulfonic Acid Sodium Salt] |  | ≥ 20 |  |  | ≥ 10 | ≥ 20 |  | ≥ 20
